According to patent publication US20250002450A1, “CATIONIC STEROID COMPOUNDS, METHOD OF OBTAINING THEREOF, FORMULATIONS COMPRISING THEREOF AND THEIR USES” (UNIVERSIDADE DO PORTO, priority 2021, published 2025):
In brackets after ≈: the same amount, converted by molar mass.

Key:
[1] = system: S. aureus 66/1 (MRSA); assay: Antibacterial MIC/MBC (broth microdilution); assay type: cell-based, Staphylococcus aureus; settings: Staphylococcus aureus
Text: (§1) Twelve reference bacterial strains and nine MDR clinically relevant bacterial strains were used in this study. Gram-negative bacteria comprised reference strains E. coli ATCC 25922, K. pneumoniae ATCC 13883, Salmonella enterica serovar Typhimurium CECT 443, P. aeruginosa ATCC 27853, A. baumannii ATCC 19606, C. jejuni ATCC 33560 (ATCC—American Type Culture Collection; CECT—Colección Espanola de Cultivos Tipo); clinical isolates E. coli SA/2, an extended-spectrum β-lactamase (ESBL)-producing strain and P. aeruginosa 33b, a pan-drug-resistant isolate; and animal isolates C. jejuni P5/4, a ciprofloxacin-resistant strain, C. jejuni 4432, C. jejuni 4433, C. jejuni 4448, and E. coli 2252, a COL-resistant strain [42]. Gram-positive strains included S. aureus ATCC 29213, E. faecalis ATCC 29212, S. pyogenes ATCC 19615, and environmental isolates methicillin-resistant S. aureus (MRSA) 66/1 [43], and VAN-resistant enterococci (VRE) E. faecalis B3/101 [44]. Gram-negative fish pathogens Yersinia ruckeri ATCC 29473, Listonella anguillarum ATCC 1924, and Tenacibaculum maritimum ATCC 43397 were also included.
(§2) Strains were kept in Trypto-Casein Soy agar (TSA—Biokar Diagnostics, Allone, Beauvais, France) slants and, before each assay, were sub-cultured in Mueller-Hinton agar (MHA—Biokar Diagnostics, Allone, Beauvais, France). Y. ruckeri ATCC 29473 and L. anguillarum ATCC 1924 were kept in Nutrient Agar (Condalab, Madrid, Spain) and T. maritimum ATCC 43397 was kept in TMM agar (Condalab, Madrid, Spain), and were sub-cultured in the respective culture media before each assay. For S. pyogenes ATCC 19615, CAMHB was supplemented with 3.75% lysed horse blood (LBH—Oxoid, Basingstoke, England), whereas for C. jejuni it was supplemented with 2.5% LHB. Colony-forming unit counts of the inoculum were conducted to determine the initial inoculum size (which should be approximately 5×10^5 CFU/mL). Sterility and growth controls were included in each assay. The 96-well U-shaped untreated polystyrene microtiter plates were incubated for 20 h at 37 degrees C. (42 degrees C. for C. jejuni, in a microaerophilic atmosphere) and the minimal inhibitory concentration (MIC) was determined as the lowest concentration of compound that prevented visible growth. The minimal bactericidal concentration (MBC) was determined by spreading 100 μL of the content of the wells with no visible growth on MH plates. The MBC was determined as the lowest concentration of compound that killed 99.9% of the initial inoculum after overnight incubation at 37 degrees C. Two independent assays were performed for reference and MDR strains.
(§3) An initial screening of the antibacterial activity of the compounds was performed by the Kirby-Bauer disk diffusion method, as recommended by the Clinical and Laboratory Standards Institute (CLSI). Briefly, sterile 6 mm blank paper disks (Oxoid, Basingstoke, England) impregnated with 15 μg of each compound were placed on inoculated MH agar plates. A blank disk with dimethylsulfoxide (DMSO) was used as a negative control. MH inoculated plates were incubated for 18-20 h at 37 degrees C. At the end of incubation, the inhibition halos where measured. The MIC was used to determine the antibacterial activity of each compound, in accordance with the recommendations of the CLSI. Two-fold serial dilutions of the compounds were prepared in Mueller-Hinton Broth 2 (MHB2—Sigma-Aldrich, St. Louis, MO, USA) within the concentration range of 0.062-64 μg/mL. CTX ranging between 0.031-16 μg/mL was used as a control. Sterility and growth controls were included in each assay. Purity checks and colony counts of the inoculum suspensions were also performed in order to ensure that the final inoculum density closely approximates the intended number (5×10^5 CFU/mL). The MIC was determined as the lowest concentration of compound that inhibited growth of the bacteria. The MBC was assessed by spreading 10 μL of culture collected from wells showing no visible growth on MH agar plates. […]

[2] = system: E. faecalis B3/101 (VRE); assay: Antibacterial MIC/MBC (broth microdilution); assay type: cell-based, Enterococcus faecalis; settings: Enterococcus faecalis, E. faecalis B3/101 (VRE)
Text: as §1, §2, §3

[3] = system: Enterococcuss faecalis ATCC 29212; assay: Antibacterial MIC/MBC (broth microdilution); assay type: cell-based, Enterococcus faecalis; settings: Enterococcus faecalis, ATCC29212, Enterococcuss faecalis ATCC 29212
Text: as §1, §2, §3

[4] = system: E. coli 2252 (COL-resistant); assay: Antibacterial MIC/MBC (broth microdilution); assay type: cell-based, Escherichia coli; settings: Escherichia coli, E. coli 2252 (COL-resistant)
Text: as §1, §2, §3

[5] = system: E. coli SA/2 (ESBL); assay: Antibacterial MIC/MBC (broth microdilution); assay type: cell-based, Escherichia coli; settings: Escherichia coli
Text: as §1, §2, §3

[6] = system: Streptococcuss pyogenes ATCC 19615; assay: Antibacterial MIC/MBC (broth microdilution); assay type: cell-based, Streptococcus pyogenes; settings: Streptococcus pyogenes, ATCC19615, Streptococcuss pyogenes ATCC 19615
Text: as §1, §2, §3

[7] = system: Tenacibaculum maritimum ATCC 43397; assay: Antibacterial disk diffusion; assay type: cell-based; settings: Tenacibaculum maritimum ATCC 43397, footnote *
Text: as §1, §2, §3

[8] = system: Staphylococcus aureus ATCC 29213; assay: Antibacterial MIC/MBC (broth microdilution); assay type: cell-based
Text: as §1, §2, §3

[9] = system: Listonella anguilarum ATCC 1924; assay: Antibacterial MIC/MBC (broth microdilution); assay type: cell-based; settings: Listonella anguilarum ATCC 1924
Text: as §1, §2, §3

[10] = system: Salmonella enterica serovar Typhimurium CECT 443; assay: Antibacterial MIC/MBC (broth microdilution); assay type: cell-based
Text: as §1, §2, §3

[11] = system: Yersinia ruckeri ATCC 29473; assay: Antibacterial MIC/MBC (broth microdilution); assay type: cell-based
Text: as §1, §2, §3

[12] = system: Klebsiella pneumoniae ATCC 13883; assay: Antibacterial MIC/MBC (broth microdilution); assay type: cell-based; settings: ATCC13883, Klebsiella pneumoniae ATCC 13883
Text: as §1, §2, §3

[13] = system: Campylobacter jejuni ATCC 33560; assay: Antibacterial MIC/MBC (broth microdilution); assay type: cell-based; settings: ATCC33560, Campylobacter jejuni ATCC 33560
Text: as §1, §2, §3

[14] = system: Escherichia coli ATCC 25922; assay: Antibacterial MIC/MBC (broth microdilution); assay type: cell-based; settings: ATCC25922, Escherichia coli ATCC 25922
Text: as §1, §2, §3

[15] = system: P. aeruginosa 33b (PDR); assay: Antibacterial MIC/MBC (broth microdilution); assay type: cell-based, Pseudomonas aeruginosa; settings: Pseudomonas aeruginosa, P. aeruginosa 33b (PDR)
Text: as §1, §2, §3

## C[C@H](CCC(=O)NCCNc1ccccc1)[C@H]1CC[C@H]2[C@@H]3CC[C@@H]4C[C@H](O)CC[C@]4(C)[C@H]3C[C@H](O)[C@]12C [Compound 8, (R)-4-((3R,5R,8R,9S,10S,12S,13R,14S,17R)-3,12-dihydroxy-10,13-dimethylhexadecahydro-1H-cyclopenta[a]phenanthren-17-yl)-N-(2-(phenylamino)ethyl)pentanamide]
[1]; read-out: MBC
  MBC: > 64 µg/mL
[1]; read-out: MIC
  MIC: > 64 µg/mL
[2]; read-out: MBC
  MBC: > 64 µg/mL
[2]; read-out: MIC
  MIC: > 64 µg/mL
[3]; read-out: MBC
  MBC: > 64 µg/mL
[3]; read-out: MIC
  MIC: > 64 µg/mL
[4]; read-out: MBC
  MBC: > 64 µg/mL
[4]; read-out: MIC
  MIC: > 64 µg/mL
[5]
  MBC: > 64 µg/mL
  MIC: > 64 µg/mL
[6]; read-out: MBC
  MBC: > 64 µg/mL
[6]; read-out: MIC
  MIC: > 64 µg/mL
[7]
  Inhibition zone diameter (disk diffusion): 12 mm
[8]; ATCC29213, read-out: MBC
  MBC: > 64 µg/mL
[8]; ATCC29213, read-out: MIC
  MIC: 16 µg/mL (≈ 31.3 µM)
[9]; read-out: MBC
  MBC: > 64 µg/mL
[9]; read-out: MIC
  MIC: > 64 µg/mL
[10]; read-out: MBC
  MBC: > 64 µg/mL
[10]; read-out: MIC
  MIC: > 64 µg/mL
[11]; ATCC29473, read-out: MBC
  MBC: > 64 µg/mL
[11]; ATCC29473, read-out: MIC
  MIC: > 64 µg/mL
[12]; read-out: MBC
  MBC: > 64 µg/mL
[12]; read-out: MIC
  MIC: > 64 µg/mL
[13]; read-out: MBC
  MBC: > 64 µg/mL
[13]; read-out: MIC
  MIC: > 64 µg/mL
[14]; read-out: MBC
  MBC: > 64 µg/mL
[14]; read-out: MIC
  MIC: > 64 µg/mL
[15]; read-out: MBC
  MBC: > 64 µg/mL
[15]; read-out: MIC
  MIC: > 64 µg/mL
